Measurements from patent US10961301B2, “Cell-penetrating anti-DNA antibodies and uses thereof inhibit DNA repair” (Yale University, priority 2011, dated 2021).

Assays:
[1] = tested on: BRCA2-deficient PEO1 ovarian cancer cells; details: 3 days after treatment; 3 nM doxorubicin, 10 μM 3E10
[2] = tested on: BRCA2-proficient PEO1 C4-2 ovarian cancer cells; details: 3 days after treatment; 3 nM doxorubicin, 10 μM 3E10

Q: Which “cell death, BRCA2-deficient cells” value [1] does the source give for `COc1cccc2c1C(=O)c1c(O)c3c(c(O)c1C2=O)C[C@@](O)(C(=O)CO)C[C@@H]3O[C@H]1C[C@H](N)[C@H](O)[C@H](C)O1` [doxorubicin] here?
A: not significantly toxic

Q: And the “cell death, BRCA2-proficient cells” value [2]?
A: not significantly toxic
